From patent US20250268857A1 (priority 2020, published 2025)
Several values for one entry are separate records, joined by “and”; a condition that tells them apart may be missing. Equal entries are not always repeated. Where two headings read alike, the source gives them in different places.

How the values were obtained:
[1] = system: avian influenza virus (A/whistling swan/Shimane/499/83 (H5N3)); type: cell-based; details: reacted 10 minutes at room temperature (20° C.), sterile distilled water control 7.75
[2] = system: human influenza viruses and avian influenza viruses with different anti-HN types (H1N1, H1N1 subtype, and H7N7); type: cell-based, influenza virus; details: zinc gluconate concentration of 7,500 ppm
feline caliciviruses = type: cell-based, feline calicivirus
[3] = system: feline coronavirus (Feline Enteric Coronavirus, WSU 79-1683); assay: Coronavirus inactivation test (titration on Felis catus whole fetus cells); type: cell-based; details: 7500 ppm aqueous solution of zinc gluconate; in 30 minutes
Experimental: First, 0.9 ml of 7500 ppm of aqueous solution of zinc gluconate (phosphate buffered saline (PBS) was used for comparison) used as a sample solution and 0.1 ml of feline coronavirus solution (Feline Enteric Coronavirus, WSU 79-1683, 1.3× 10^5 EID50/0.1 ml) were mixed in a vortex mixer and reacted at room temperature (20° C.) for 30 minutes. The mixture solution of the sample and the virus was diluted to 100 times with a 5-times diluted Soybean-Casein Digest Broth with Lecithin & Polysorbate 80 (SCDLP) to stop the reaction and obtain a sample for measuring virus infection values.
Felis catus whole fetus cells used for testing were pre-seeded in 96-well plates and cultured in a CO2 incubator for 4 days. After this, the culture supernatant was removed and replaced with Dulbecco's Modified Eagle's medium containing 1% fetal bovine serum (available from Nissui Pharmaceutical Co., Ltd.).
The wells from which the culture medium had been removed were inoculated with 25 μl of the above sample for measuring virus infection values or with a 10-fold dilution of this in PBS, and the virus was allowed to infect the cells at 37° C. for 1 hour. […] After incubation, the cytopathic effect caused by virus growth was observed under a microscope, and the virus infection titer was calculated by the Reed and Muench method.

[4] = system: influenza A virus (Kumamoto/Y5/67 (H2/N2)); parameters: species or system guinea pigs; details: guinea pig, in vivo
[5] = type: physicochemical; details: samples with 2,000 to 30,000 ppm zinc gluconate
Description: Zinc oxide nanoparticles having a diameter of 50 to 70 nm were dispersed and stirred into an aqueous solution at room temperature while the solution temperature was prevented from exceeding room temperature. The aqueous solution contained 50% of organic acid (gluconic acid in the embodiment) that partially lactonizes when dissolved in water.

Substance: zinc gluconate
- Virus Infectivity Titer ([1]; zinc gluconate 2,000 ppm): 6.25 log EID50/0.1 ml
- Virus Infectivity Titer ([1]; zinc gluconate 3,750 ppm): 4.5 log EID50/0.1 ml
- Virus Infectivity Titer ([1]; zinc gluconate 5,000 ppm): 3.5 log EID50/0.1 ml
- Virus Infectivity Titer ([1]; zinc gluconate 7,500 ppm): 2.25 log EID50/0.1 ml
- Virus Infectivity Titer ([1]; zinc gluconate 10,000 ppm): 2.5 log EID50/0.1 ml
- Virus Infectivity Titer ([1]; zinc gluconate 30,000 ppm): 5.75 log EID50/0.1 ml
- reduction in infectivity titer [2]: same reduction in infectivity titer
- reduction in infectivity titer (feline caliciviruses): 94%
- titer reduced to (fraction) [3]: 1/100
- Infection rate [4]: 4/10 and 1/10 and 3/10
- pH [5]: 3.6
